In PMC11555678, “Improved Broad Spectrum Antifungal Drug Synergies with Cryptomycin, a Cdc50-Inspired Antifungal Peptide” (ACS Infectious Diseases, 2024):
In brackets after ≈: the same amount, converted by molar mass. Like-named read-outs stand apart in the source and are kept apart here.

Experiments:
[1] = test system: C. neoformans H99; format: cell-based, Cryptococcus neoformans; details: for MIC of antifungal in combination with (FITC)KKOO / MIC of antifungal in combination with KKOO / MIC of antifungal in combination with KKOO-NH2: RPMI1640, 37 °C; for MIC of antifungal in combination with KKOO / MIC of antifungal in combination with KKOO-NH2: 48 h
[2] = test system: C. albicans SC5413; format: cell-based, Candida albicans; details: RPMI1640, 37 °C, 48 h; for MIC of antifungal in combination with KKOO: azole MICs unclear (intermediate phenotype); for MIC of antifungal in combination with KKOO-NH2: azole MICs could not be determined (intermediate phenotype)
Summary of the method: (§1)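 RPMI1640, 2-fold dilution series, 5000 cfu/mL yeast inoculum, 37 °C, 2 d; CLSI M27 (yeasts)/M38 (filamentous). Synergy: peptide added to medium, FIC index calculated. Two technical × ≥2 biological replicates; discordant duplicates → higher MIC.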

[3] = test system: A. fumigatus AF293; experiment: Drug synergy (MIC in peptide-supplemented media); format: cell-based, Aspergillus fumigatus; details: RPMI1640, 37 °C, 48 h, CAS: paradoxical growth; for MIC of antifungal in combination with KKOO: MIC = <20% growth; for MIC of antifungal in combination with KKOO-NH2: MIC = well with <20% growth
Summary of the method: as §1

[4] = test system: C. albicans SC5413; experiment: microbe, parasite or virus in culture; format: cell-based, Candida albicans; details: Candida albicans, SC5413; compound alone; RPMI1640, 37 °C, 48 h; read-out: MIC
Summary of the method: (§2)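 CLSI M27 yeast microdilution; RPMI1640; 2-fold serial dilution of drug (DMSO stock); inoculum 5000 cfu/mL from washed overnight YPD cultures; 37 °C, 2 d.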

[5] = test system: C. glabrata FKS1-S629P; experiment: microbe, parasite or virus in culture; format: cell-based, Candida glabrata; details: Nakaseomyces glabratus, FKS1S629P, 48 h
Summary of the method: as §2

[6] = test system: C. glabrata 2001; experiment: microbe, parasite or virus in culture; format: cell-based, Candida glabrata; details: Nakaseomyces glabratus, 2001; compound alone; RPMI1640, 37 °C, 48 h; read-out: MIC
Summary of the method: as §2

[7] = test system: C. glabrata FKS2-S663P; experiment: microbe, parasite or virus in culture; format: cell-based, Candida glabrata; details: Nakaseomyces glabratus, FKS2S663P, 48 h
Summary of the method: as §2

[8] = test system: C. neoformans apt2Δ; experiment: microbe, parasite or virus in culture; format: cell-based, Cryptococcus neoformans; details: Cryptococcus neoformans, 48 h
Summary of the method: as §2

[9] = test system: C. neoformans apt4Δ; experiment: microbe, parasite or virus in culture; format: cell-based, Cryptococcus neoformans; details: Cryptococcus neoformans, 48 h
Summary of the method: as §2

[10] = test system: C. neoformans H99; experiment: microbe, parasite or virus in culture; format: cell-based, Cryptococcus neoformans; details: Cryptococcus neoformans, H99, 48 h
Summary of the method: as §2

[11] = test system: C. neoformans apt1Δ; experiment: microbe, parasite or virus in culture; format: cell-based, Cryptococcus neoformans; details: Cryptococcus neoformans, 48 h
Summary of the method: as §2

[12] = test system: C. neoformans Crm1^OE; experiment: microbe, parasite or virus in culture; format: cell-based, Cryptococcus neoformans; details: Cryptococcus neoformans, 48 h
Summary of the method: as §2

[13] = test system: C. neoformans crm1Δ; experiment: microbe, parasite or virus in culture; format: cell-based, Cryptococcus neoformans; details: Cryptococcus neoformans, 48 h
Summary of the method: as §2

[14] = test system: C. neoformans apt3Δ; experiment: microbe, parasite or virus in culture; format: cell-based, Cryptococcus neoformans; details: Cryptococcus neoformans, 48 h
Summary of the method: as §2

[15] = test system: C. neoformans cdc50Δ; experiment: microbe, parasite or virus in culture; format: cell-based, Cryptococcus neoformans; details: Cryptococcus neoformans, 48 h
Summary of the method: as §2

[16] = test system: C. neoformans MRL862; experiment: microbe, parasite or virus in culture; format: cell-based, Cryptococcus neoformans; details: Cryptococcus neoformans, MRL862; compound alone; RPMI1640, 37 °C, 48 h; read-out: MIC
Summary of the method: as §2

[17] = test system: A. fumigatus AF293; experiment: microbe, parasite or virus in culture; format: cell-based, Aspergillus fumigatus; details: Aspergillus fumigatus, AF293, 48 h
[18] = test system: C. auris B11245; format: cell-based, Candida auris; details: RPMI1640, 37 °C, 48 h, CAS: paradoxical growth; for MIC of antifungal in combination with KKOO: MIC = <20% growth; for MIC of antifungal in combination with KKOO-NH2: MIC = well with <20% growth
Summary of the method: as §1

**Q.** CCC(C)n1ncn(-c2ccc(N3CCN(c4ccc(OCC5COC(Cn6cncn6)(c6ccc(Cl)cc6Cl)O5)cc4)CC3)cc2)c1=O (centres unmarked) [ITR, itraconazole] was tested. Which “MIC of antifungal in combination with (FITC)KKOO” value (“MIC of antifungal … (FITC)KKOO” for short) ([1]; +0 μg/mL (FITC)KKOO) did it give?
**A.** 0.125 mg/L

**Q.** What about the “MIC of antifungal in combination with KKOO” value ([1]; +0 μg/mL KKOO (control)) of the same compound?
**A.** 0.125 mg/L

**Q.** And the “MIC of antifungal in combination with KKOO-NH2” value (shortened to “MIC … with KKOO-NH2”) ([1]; +0 μg/mL KKOO-NH2 (control))?
**A.** 0.125 mg/L

**Q.** What about the “MIC … with KKOO-NH2” value ([1]; +1 μg/mL KKOO-NH2) of the same compound?
**A.** 0.031 mg/L

**Q.** And the “MIC of antifungal in combination with KKOO” value ([1]; +1 μg/mL KKOO)?
**A.** 0.062 mg/L

**Q.** What about the “MIC … with KKOO-NH2” value ([1]; +2 μg/mL KKOO-NH2) of the same compound?
**A.** 0.016 mg/L

**Q.** And the “MIC of antifungal in combination with KKOO” value ([1]; +2 μg/mL KKOO)?
**A.** 0.016 mg/L

**Q.** And the “MIC of antifungal … (FITC)KKOO” value ([1]; +4 μg/mL (FITC)KKOO)?
**A.** 0.062 mg/L

**Q.** And the “MIC … with KKOO-NH2” value ([1]; +4 μg/mL KKOO-NH2)?
**A.** 0.008 mg/L

**Q.** And the “MIC of antifungal in combination with KKOO” value ([1]; +4 μg/mL KKOO)?
**A.** 0.016 mg/L

**Q.** What about the “MIC of antifungal … (FITC)KKOO” value ([1]; +8 μg/mL (FITC)KKOO) of the same compound?
**A.** 0.031 mg/L

**Q.** And the “MIC of antifungal in combination with KKOO” value ([1]; +8 μg/mL KKOO)?
**A.** 0.008 mg/L

**Q.** And the “reduction of MIC of antifungal” value ([1]; in the presence of 2 μg/mL KKOO-NH2, 48 h)?
**A.** 8 fold

**Q.** What about the “MIC of antifungal in combination with KKOO” value ([2]; +0 μg/mL KKOO (control)) of the same compound?
**A.** > 1 mg/L

**Q.** And the “MIC … with KKOO-NH2” value ([2]; +0 μg/mL KKOO-NH2 (control))?
**A.** >1 mg/L

**Q.** And the “MIC … with KKOO-NH2” value ([2]; +1 μg/mL KKOO-NH2)?
**A.** >1 mg/L

**Q.** What about the “MIC of antifungal in combination with KKOO” value ([2]; +1 μg/mL KKOO) of the same compound?
**A.** > 1 mg/L

**Q.** What about the “MIC … with KKOO-NH2” value ([2]; +2 μg/mL KKOO-NH2) of the same compound?
**A.** >1 mg/L

**Q.** What about the “MIC of antifungal in combination with KKOO” value ([2]; +2 μg/mL KKOO) of the same compound?
**A.** > 1 mg/L

**Q.** And the “MIC … with KKOO-NH2” value ([2]; +4 μg/mL KKOO-NH2)?
**A.** >1 mg/L

**Q.** What about the “MIC of antifungal in combination with KKOO” value ([2]; +4 μg/mL KKOO) of the same compound?
**A.** > 1 mg/L

**Q.** And the “MIC of antifungal in combination with KKOO” value ([2]; +8 μg/mL KKOO)?
**A.** > 1 mg/L

**Q.** What about the “MIC of antifungal in combination with KKOO” value ([3]; +0 μg/mL KKOO (control)) of the same compound?
**A.** 0.125 mg/L

**Q.** What about the “MIC … with KKOO-NH2” value ([3]; +0 μg/mL KKOO-NH2 (control)) of the same compound?
**A.** 0.125 mg/L

**Q.** And the “MIC … with KKOO-NH2” value ([3]; +1 μg/mL KKOO-NH2)?
**A.** 0.125 mg/L

**Q.** And the “MIC of antifungal in combination with KKOO” value ([3]; +1 μg/mL KKOO)?
**A.** 0.125 mg/L

**Q.** And the “MIC … with KKOO-NH2” value ([3]; +2 μg/mL KKOO-NH2)?
**A.** 0.062 mg/L

**Q.** What about the “MIC of antifungal in combination with KKOO” value ([3]; +2 μg/mL KKOO) of the same compound?
**A.** 0.062 mg/L

**Q.** What about the “MIC … with KKOO-NH2” value ([3]; +4 μg/mL KKOO-NH2) of the same compound?
**A.** 0.062 mg/L

**Q.** What about the “MIC of antifungal in combination with KKOO” value ([3]; +4 μg/mL KKOO) of the same compound?
**A.** 0.062 mg/L

**Q.** What about the “MIC … with KKOO-NH2” value ([3]; +8 μg/mL KKOO-NH2) of the same compound?
**A.** 0.031 mg/L

**Q.** What about the MIC [4] of the same compound?
**A.** > 1 mg/L

**Q.** What about the MIC [5] of the same compound?
**A.** 0.125 mg/L (≈ 0.177 µM)

**Q.** What about the MIC [6] of the same compound?
**A.** 0.5 mg/L (≈ 0.709 µM)

**Q.** What about the MIC [7] of the same compound?
**A.** 0.125 mg/L (≈ 0.177 µM)

**Q.** And the MIC [8]?
**A.** 0.125 mg/L (≈ 0.177 µM)

**Q.** What about the MIC [9] of the same compound?
**A.** 0.062 mg/L (≈ 0.0879 µM)

**Q.** What about the MIC [10] of the same compound?
**A.** 0.125 mg/L (≈ 0.177 µM)

**Q.** What about the MIC [11] of the same compound?
**A.** 0.5 mg/L (≈ 0.709 µM)

**Q.** What about the MIC [12] of the same compound?
**A.** 0.016 mg/L (≈ 0.0227 µM)

**Q.** What about the MIC [13] of the same compound?
**A.** 0.062 mg/L (≈ 0.0879 µM)

**Q.** And the MIC [14]?
**A.** 0.062 mg/L (≈ 0.0879 µM)

**Q.** What about the MIC [15] of the same compound?
**A.** 0.002 mg/L (≈ 0.00283 µM)

**Q.** What about the MIC [16] of the same compound?
**A.** 0.031 mg/L (≈ 0.0439 µM)

**Q.** And the MIC [17]?
**A.** 0.125 mg/L (≈ 0.177 µM)

**Q.** And the “MIC of antifungal in combination with KKOO” value ([18]; +0 μg/mL KKOO (control))?
**A.** 0.5 mg/L

**Q.** And the “MIC … with KKOO-NH2” value ([18]; +0 μg/mL KKOO-NH2 (control))?
**A.** 0.5 mg/L

**Q.** What about the “MIC … with KKOO-NH2” value ([18]; +1 μg/mL KKOO-NH2) of the same compound?
**A.** 0.125 mg/L

**Q.** And the “MIC of antifungal in combination with KKOO” value ([18]; +1 μg/mL KKOO)?
**A.** 0.25 mg/L

**Q.** And the “MIC … with KKOO-NH2” value ([18]; +2 μg/mL KKOO-NH2)?
**A.** 0.062 mg/L

**Q.** And the “MIC of antifungal in combination with KKOO” value ([18]; +2 μg/mL KKOO)?
**A.** 0.062 mg/L

**Q.** What about the “MIC … with KKOO-NH2” value ([18]; +4 μg/mL KKOO-NH2) of the same compound?
**A.** 0.016 mg/L

**Q.** What about the “MIC of antifungal in combination with KKOO” value ([18]; +4 μg/mL KKOO) of the same compound?
**A.** 0.031 mg/L
